Data from ChEMBL document CHEMBL3045159, “Computational evaluation and experimental in vitro antibacterial, antifungal and antiviral activity of bis-Schiff bases of isatin and its derivatives” (Med Chem Res, 2013).
Values after ≈ are worked out from the molar mass of the structure shown.

Key:
[1] = tested on: Coxsackievirus B4; experiment: Antiviral activity against Human coxsackievirus B4 infected HeLa cells; format: functional; conditions: Enterovirus B
[2] = tested on: Escherichia coli; experiment: Antibacterial activity against Escherichia coli CIP 54127; format: functional
[3] = tested on: Vesicular stomatitis virus; experiment: Antiviral activity against Vesicular stomatitis virus infected HEL cells; format: functional
[4] = tested on: Vaccinia virus; experiment: Antiviral activity against Vaccinia virus infected HEL cells; format: functional; conditions: Orthopoxvirus vaccinia
[5] = tested on: Punta Toro virus; experiment: Antiviral activity against Punta Toro virus infected Vero cells; format: functional
[6] = Cytotoxicity against Chlorocebus aethiops (African green monkey) Vero cells; format: cell-based; conditions: chlorocebus sabaeus
[7] = tested on: Human alphaherpesvirus 2; experiment: Antiviral activity against Human herpesvirus 2 strain G infected HEL cells; format: functional; conditions: Human alphaherpesvirus 2, strain G
[8] = tested on: Mammalian orthoreovirus 1; experiment: Antiviral activity against Mammalian orthoreovirus 1 infected Vero cells; format: functional
[9] = tested on: Human alphaherpesvirus 1; experiment: Antiviral activity against thymidine kinase-deficient, acylcovir-resistant Human herpesvirus 1 strain KOS infected in HEL cells; format: functional; conditions: Human alphaherpesvirus 1, KOS
[10] = tested on: Saccharomyces cerevisiae; experiment: Antifungal activity against Saccharomyces cerevisiae ATCC 28383; format: functional
[11] = tested on: Vesicular stomatitis virus; experiment: Antiviral activity against Vesicular stomatitis virus infected HeLa; format: functional
[12] = tested on: Coxsackievirus B4; experiment: Antiviral activity against Human coxsackievirus B4 infected Vero cells; format: functional; conditions: Enterovirus B
[13] = tested on: Staphylococcus aureus; experiment: Antibacterial activity against Staphylococcus aureus CIP 4.83; format: functional
[14] = Cytotoxicity against Homo sapiens (human) HEL cells; format: cell-based
[15] = tested on: Candida albicans; experiment: Antifungal activity against Candida albicans CIP 1180-79; format: functional
[16] = tested on: Sindbis virus; experiment: Antiviral activity against Sindbis virus infected Vero cells; format: functional
[17] = tested on: Human respirovirus 3; experiment: Antiviral activity against Human parainfluenza virus 3 infected Vero cells; format: functional
[18] = tested on: Respiratory syncytial virus; experiment: Antiviral activity against Respiratory syncytial virus infected HeLa cells; format: functional; conditions: human respiratory syncytial virus
[19] = tested on: Human alphaherpesvirus 1; experiment: Antiviral activity against Human herpesvirus 1 strain KOS infected in HEL cells; format: functional; conditions: Human alphaherpesvirus 1, KOS
[20] = Cytotoxicity against Homo sapiens (human) HeLa cells; format: cell-based

SMILES	MIC [1]	MIC [2]	MIC [3]	MIC [4]	MIC [5]	MCC [6]	MIC [7]	MIC [8]	MIC [9]	MIC [10]	MIC [11]	MIC [12]	MIC [13]	MCC [14]	MIC [15]	MIC [16]	MIC [17]	MIC [18]	MIC [19]	MCC [20]
O=C1Nc2ccccc2/C1=N\c1cccc(Cc2cccc(/N=C3/C(=O)Nc4ccccc43)c2)c1	> 16 µg/mL	< 50 µg/mL	> 16 µg/mL	> 16 µg/mL	> 16 µg/mL	80 µg/mL	> 16 µg/mL	> 16 µg/mL	> 16 µg/mL	< 50 µg/mL	9.6 µg/mL (≈ 21 µM)	> 16 µg/mL	< 50 µg/mL	80 µg/mL	< 50 µg/mL	> 16 µg/mL	> 16 µg/mL	> 16 µg/mL	> 16 µg/mL	≥ 16 µg/mL
O=C1Nc2ccc(F)cc2/C1=N\c1cccc(Cc2cccc(/N=C3/C(=O)Nc4ccc(F)cc43)c2)c1	> 16 µg/mL	< 50 µg/mL	> 16 µg/mL	> 16 µg/mL	> 16 µg/mL	80 µg/mL	> 16 µg/mL	> 16 µg/mL	> 16 µg/mL	< 50 µg/mL	9.6 µg/mL (≈ 19.5 µM)	> 16 µg/mL	< 50 µg/mL	80 µg/mL	< 50 µg/mL	> 16 µg/mL	> 16 µg/mL	> 16 µg/mL	> 16 µg/mL	80 µg/mL
O=C1/C(=N/c2cccc(Cc3cccc(/N=C4/C(=O)N(Cc5ccccc5)c5ccccc54)c3)c2)c2ccccc2N1Cc1ccccc1	> 40 µg/mL	< 50 µg/mL	> 40 µg/mL	> 40 µg/mL	> 40 µg/mL	200 µg/mL	> 40 µg/mL	> 40 µg/mL	> 40 µg/mL	< 50 µg/mL	> 40 µg/mL	> 40 µg/mL	< 50 µg/mL	200 µg/mL	< 50 µg/mL	> 40 µg/mL	> 40 µg/mL	> 40 µg/mL	> 40 µg/mL	200 µg/mL
O=C1Nc2ccccc2/C1=N\c1ccc(Cc2cccc(/N=C3/C(=O)Nc4ccccc43)c2)cc1	> 16 µg/mL	< 50 µg/mL	> 16 µg/mL	> 16 µg/mL	> 16 µg/mL	80 µg/mL	> 16 µg/mL	> 16 µg/mL	> 16 µg/mL	< 50 µg/mL	3.2 µg/mL (≈ 7.01 µM)	> 16 µg/mL	< 50 µg/mL	80 µg/mL	< 50 µg/mL	> 16 µg/mL	> 16 µg/mL	> 16 µg/mL	> 16 µg/mL	≥ 16 µg/mL
O=C1Nc2ccccc2/C1=N\c1ccc(Oc2cccc(/N=C3/C(=O)Nc4ccccc43)c2)cc1	> 16 µg/mL	< 50 µg/mL	> 80 µg/mL	> 80 µg/mL	> 80 µg/mL	400 µg/mL	> 80 µg/mL	> 80 µg/mL	> 80 µg/mL	< 50 µg/mL	> 16 µg/mL	> 80 µg/mL	< 50 µg/mL	400 µg/mL	< 50 µg/mL	> 80 µg/mL	> 80 µg/mL	> 16 µg/mL	> 80 µg/mL	≥ 16 µg/mL
O=C1Nc2ccc(F)cc2/C1=N/c1ccc(Cc2ccc(/N=C3\C(=O)Nc4ccc(F)cc43)cc2)cc1	> 16 µg/mL	< 50 µg/mL	> 3.2 µg/mL	> 3.2 µg/mL	> 16 µg/mL	≥ 16 µg/mL	> 3.2 µg/mL	> 16 µg/mL	> 3.2 µg/mL	< 50 µg/mL	> 16 µg/mL	> 16 µg/mL	< 50 µg/mL	16 µg/mL	< 50 µg/mL	> 16 µg/mL	> 16 µg/mL	> 16 µg/mL	> 3.2 µg/mL	80 µg/mL
CCc1ccc2c(c1)/C(=N/c1c(CC)cc(Cc3cc(CC)c(/N=C4\C(=O)N(CC)c5ccc(CC)cc54)c(CC)c3Cl)c(Cl)c1CC)C(=O)N2CC	> 3.2 µg/mL	< 50 µg/mL	> 16 µg/mL	> 16 µg/mL	> 3.2 µg/mL	16 µg/mL	> 16 µg/mL	> 3.2 µg/mL	> 16 µg/mL	< 50 µg/mL	> 3.2 µg/mL	> 3.2 µg/mL	< 50 µg/mL	80 µg/mL	< 50 µg/mL	> 3.2 µg/mL	> 3.2 µg/mL	> 3.2 µg/mL	> 16 µg/mL	16 µg/mL
O=C1/C(=N\c2ccc(Cc3ccc(/N=C4\C(=O)N(Cc5ccccc5)c5ccccc54)cc3)cc2)c2ccccc2N1Cc1ccccc1	> 40 µg/mL	< 50 µg/mL	> 8 µg/mL	> 8 µg/mL	> 8 µg/mL	40 µg/mL	> 8 µg/mL	> 8 µg/mL	> 8 µg/mL	< 50 µg/mL	> 40 µg/mL	> 8 µg/mL	< 50 µg/mL	40 µg/mL	< 50 µg/mL	> 8 µg/mL	> 8 µg/mL	> 40 µg/mL	> 8 µg/mL	200 µg/mL
O=C1Nc2ccc(F)cc2/C1=N/c1ccc(Oc2ccc(/N=C3\C(=O)Nc4ccc(F)cc43)cc2)cc1	> 16 µg/mL	< 50 µg/mL	> 1.6 µg/mL	> 1.6 µg/mL	> 8 µg/mL	40 µg/mL	> 1.6 µg/mL	> 8 µg/mL	> 1.6 µg/mL	< 50 µg/mL	> 16 µg/mL	> 8 µg/mL	< 50 µg/mL	8 µg/mL	< 50 µg/mL	> 8 µg/mL	> 8 µg/mL	> 16 µg/mL	> 1.6 µg/mL	≥ 16 µg/mL
O=C1/C(=N\c2ccc(Oc3ccc(/N=C4\C(=O)N(Cc5ccccc5)c5ccccc54)cc3)cc2)c2ccccc2N1Cc1ccccc1	> 16 µg/mL	< 50 µg/mL	> 80 µg/mL	> 80 µg/mL	> 80 µg/mL	80 µg/mL	> 80 µg/mL	> 80 µg/mL	> 80 µg/mL	< 50 µg/mL	> 16 µg/mL	> 80 µg/mL	< 50 µg/mL	400 µg/mL	< 50 µg/mL	> 80 µg/mL	> 80 µg/mL	> 16 µg/mL	> 80 µg/mL	80 µg/mL
O=C1Nc2ccccc2/C1=N/c1ccc(C(=O)c2ccc(/N=C3\C(=O)Nc4ccccc43)cc2)cc1	> 16 µg/mL	< 50 µg/mL	> 16 µg/mL	> 16 µg/mL	> 16 µg/mL	≥ 16 µg/mL	> 16 µg/mL	> 16 µg/mL	> 16 µg/mL	< 50 µg/mL	48 µg/mL (≈ 102 µM)	> 16 µg/mL	< 50 µg/mL	80 µg/mL	< 50 µg/mL	> 16 µg/mL	> 16 µg/mL	> 16 µg/mL	> 16 µg/mL	80 µg/mL
Cc1c(/N=C2/C(=O)Nc3ccccc32)cccc1/N=C1/C(=O)Nc2ccccc21	> 400 µg/mL	< 100 µg/mL	> 80 µg/mL	> 80 µg/mL	> 80 µg/mL	400 µg/mL	> 80 µg/mL	> 80 µg/mL	16 µg/mL (≈ 42.1 µM)	< 100 µg/mL	> 400 µg/mL	> 80 µg/mL	< 100 µg/mL	400 µg/mL	< 100 µg/mL	> 80 µg/mL	> 80 µg/mL	> 400 µg/mL	> 80 µg/mL	≥ 400 µg/mL
Nc1ncnc2c1ncn2C[C@H](O)CO [(S)-DHPA]	> 500 µg/mL					500 µg/mL		300 µg/mL (≈ 1430 µM)			500 µg/mL (≈ 2390 µM)	> 100 µg/mL				> 100 µg/mL	> 100 µg/mL	> 500 µg/mL		> 500 µg/mL
Nc1nc2c(ncn2COCCO)c(=O)[nH]1 [ACYCLOVIR]			> 500 µg/mL	> 500 µg/mL			20 µg/mL (≈ 88.8 µM)		300 µg/mL (≈ 1330 µM)					> 500 µg/mL					2.4 µg/mL (≈ 10.7 µM)	
O=c1[nH]c(=O)n([C@H]2C[C@H](O)[C@@H](CO)O2)cc1/C=C/Br [BRIVUDINE]	> 500 µg/mL		> 500 µg/mL	60 µg/mL (≈ 180 µM)	> 100 µg/mL	500 µg/mL	> 500 µg/mL	> 100 µg/mL	500 µg/mL (≈ 1500 µM)		> 500 µg/mL	> 100 µg/mL		> 500 µg/mL		> 100 µg/mL	> 100 µg/mL	> 500 µg/mL	0.16 µg/mL (≈ 0.48 µM)	500 µg/mL
Nc1nc2c(ncn2COC(CO)CO)c(=O)[nH]1 [GANCICLOVIR]			> 100 µg/mL	> 100 µg/mL			4 µg/mL (≈ 15.7 µM)		12 µg/mL (≈ 47 µM)					> 100 µg/mL					0.48 µg/mL (≈ 1.88 µM)	
NC(=O)c1ncn([C@@H]2O[C@H](CO)[C@@H](O)[C@H]2O)n1 [RIBAVIRIN]	> 500 µg/mL		> 500 µg/mL	300 µg/mL (≈ 1230 µM)	60 µg/mL (≈ 246 µM)	> 500 µg/mL	> 500 µg/mL	300 µg/mL (≈ 1230 µM)	> 500 µg/mL		60 µg/mL (≈ 246 µM)	> 500 µg/mL		> 500 µg/mL		300 µg/mL (≈ 1230 µM)	300 µg/mL (≈ 1230 µM)	60 µg/mL (≈ 246 µM)	500 µg/mL (≈ 2050 µM)	> 500 µg/mL
